In article PMC5078989, “Targeted inhibition of the COP9 signalosome for treatment of cancer” (Nature Communications, 2016):

Assays:
[1] = target: T1, human MMP12 (Homo sapiens, UniProt P39900); experiment: Selectivity assay MMP12; type: biochemical
T1 construct: human MMP12 (Uniprot P39900), amino acids 101–268; made in house; host or cells: E. coli
Description: (§1) All biochemical assays were performed at room temperature in 384-well plates in a total volume of 25.25 μl per well. Test compounds were dissolved in 90% (v/v) DMSO/water. For the assays, 250 nl of compound solution was added per well, followed by addition of 12.5 μl protease solution. After 70 min of pre-incubation at room temperature, the reactions were started by addition of 12.5 μl substrate solution and followed either by measuring fluorescence intensity (rhodamine 110-based substrates) or by fluorescence lifetime (PT14-based substrates). The effect of compound on enzymatic activity was obtained from the linear part of the progress curves and determined after 1 h (t=60 min). The final compound concentrations ranged from 100 μM to 1 nM.
(§2) Matrix metalloproteinases. Human MMP1 (Uniprot P03956), amino acids 1–469, expressed in and purified from stable transfected C127 cells; human MMP2 (Uniprot P08253), amino acids 1–660, expressed in and purified from insect cells (baculovirus expression system); human MMP8 (Uniprot P22894), amino acids 100–262, expressed in and purified from E. coli; human MMP9 (Uniprot P14780), amino acids 1–707, expressed in and purified from stable transfected 293 cells; human MMP12 (Uniprot P39900), amino acids 101–268, expressed in and purified from E. coli; human MMP13 (Uniprot P45452), amino acids 103–274, expressed in and purified from E. coli; human MMP14 (Uniprot P50281), amino acids 112–284, expressed in and purified from E. coli; human ADAM17 (Uniprot P78536), amino acids 1–670, expressed in and purified from insect cells (baculovirus expression system); substrate: Ac-C(PT14)-[…]-NH2 purchased from Biosyntan (product number 8069); enzyme concentrations: 3 nM (MMP1), 1 nM (MMP2), 3 nM (MMP8), 0.1 nM (MMP9), 0.5 nM (MMP12), 0.13 nM (MMP13), 0.005 nM (MMP14), 30 nM (ADAM17); substrate concentration: 0.8 μM; assay buffer: 100 mM Tris, pH 7.4, 100 mM NaCl, 10 mM CaCl2, 10 μM ZnCl2, 0.075% (v/v) Brij35.

[2] = target: T2, human MMP13 (Homo sapiens, UniProt P45452); experiment: Selectivity assay MMP13; type: biochemical
T2 construct: human MMP13 (Uniprot P45452), amino acids 103–274; made in house; host or cells: E. coli
Description: as §1, §2

[3] = target: T3, Human AMSHLP (Homo sapiens, UniProt Q96FJ0); experiment: Selectivity assay AMSHLP (ubiquitin-rhodamine110-glycine substrate); type: biochemical; conditions: JAMM domain protease
T3 construct: made in house; host or cells: E. coli
T3 sequence (Q96FJ0 1-436): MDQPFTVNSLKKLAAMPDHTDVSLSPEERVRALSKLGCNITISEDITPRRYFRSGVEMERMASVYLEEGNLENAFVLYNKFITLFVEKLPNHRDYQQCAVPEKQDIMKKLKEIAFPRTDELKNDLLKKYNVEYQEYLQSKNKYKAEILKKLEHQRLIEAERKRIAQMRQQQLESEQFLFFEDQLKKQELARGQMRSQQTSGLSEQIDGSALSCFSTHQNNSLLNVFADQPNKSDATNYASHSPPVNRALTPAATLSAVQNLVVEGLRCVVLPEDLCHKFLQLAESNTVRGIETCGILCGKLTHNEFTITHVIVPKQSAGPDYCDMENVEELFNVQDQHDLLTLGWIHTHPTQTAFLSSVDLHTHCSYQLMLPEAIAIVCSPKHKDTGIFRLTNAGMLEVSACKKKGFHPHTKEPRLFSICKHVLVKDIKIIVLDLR
Description: as §1
Human AMSHLP. Enzyme was expressed in and purified from E. coli; substrate: ubiquitin-rhodamine110-glycine was purchased from emp Biotech GmbH (Berlin, Germany; product number AS 09/12-A4); enzyme concentration: 4 nM; substrate concentration: 200 nM; assay buffer: 100 mM Tris/HCl at pH 7.5, 10 mM CaCl2, 100 mM NaCl, 10 μM ZnCl2, 0.005% (v/v) BRIJ 35 and 5 mM dithioerythritol (DTE).

[4] = target: T4, human MMP9 (Homo sapiens, UniProt P14780); experiment: Selectivity assay MMP9; type: biochemical
T4 construct: human MMP9 (Uniprot P14780), amino acids 1–707; made in house; host or cells: stably transfected 293 cells
Description: as §1, §2

[5] = target: T5, human MMP2 (Homo sapiens, UniProt P08253); experiment: Selectivity assay MMP2; type: biochemical
T5 construct: human MMP2 (Uniprot P08253), amino acids 1–660; made in house; host or cells: insect cells (baculovirus)
T5 sequence (P08253 30-660): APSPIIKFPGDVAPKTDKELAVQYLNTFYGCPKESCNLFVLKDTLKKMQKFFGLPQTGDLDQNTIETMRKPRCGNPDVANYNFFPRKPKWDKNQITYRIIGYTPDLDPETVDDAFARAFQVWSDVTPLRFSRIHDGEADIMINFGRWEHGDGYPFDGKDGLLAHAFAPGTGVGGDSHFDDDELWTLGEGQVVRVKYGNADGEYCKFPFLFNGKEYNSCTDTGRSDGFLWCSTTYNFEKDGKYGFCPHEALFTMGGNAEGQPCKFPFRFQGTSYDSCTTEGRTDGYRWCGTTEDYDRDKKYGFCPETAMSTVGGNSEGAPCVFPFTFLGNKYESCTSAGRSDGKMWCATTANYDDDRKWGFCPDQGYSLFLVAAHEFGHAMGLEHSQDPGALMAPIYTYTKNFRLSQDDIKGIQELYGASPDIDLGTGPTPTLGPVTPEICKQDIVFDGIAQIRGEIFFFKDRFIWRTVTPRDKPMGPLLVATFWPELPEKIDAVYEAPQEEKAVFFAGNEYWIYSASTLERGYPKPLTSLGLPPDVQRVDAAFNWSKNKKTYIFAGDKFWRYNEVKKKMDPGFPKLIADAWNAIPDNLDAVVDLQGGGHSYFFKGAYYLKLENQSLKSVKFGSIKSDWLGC
Description: as §1, §2

[6] = target: T6, human MMP8 (Homo sapiens, UniProt P22894); experiment: Selectivity assay MMP8; type: biochemical
T6 construct: human MMP8 (Uniprot P22894), amino acids 100–262; made in house; host or cells: E. coli
Description: as §1, §2

[7] = Pharmacokinetics in mice (single i.v. and oral dose); conditions: mouse, in vivo, mice (n=3), single i.v. 1 mg per kg and single oral 3 mg per kg dose; for clearance: read-out: Cl (clearance); for bioavailability: read-out: F (absolute bioavailability); for half-life: read-out: t1/2 (half-life)
[8] = target: T7, human ADAM17 (Homo sapiens, UniProt P78536); experiment: Selectivity assay ADAM17; type: biochemical
T7 construct: human ADAM17 (Uniprot P78536), amino acids 1–670; made in house; host or cells: insect cells (baculovirus)
Description: as §1, §2

T1 sequence (P39900 101-268): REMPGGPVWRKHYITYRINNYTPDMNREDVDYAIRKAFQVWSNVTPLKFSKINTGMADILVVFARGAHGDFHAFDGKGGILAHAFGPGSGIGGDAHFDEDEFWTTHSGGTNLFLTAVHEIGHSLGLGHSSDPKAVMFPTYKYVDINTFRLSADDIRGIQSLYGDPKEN
T6 sequence (P22894 100-262): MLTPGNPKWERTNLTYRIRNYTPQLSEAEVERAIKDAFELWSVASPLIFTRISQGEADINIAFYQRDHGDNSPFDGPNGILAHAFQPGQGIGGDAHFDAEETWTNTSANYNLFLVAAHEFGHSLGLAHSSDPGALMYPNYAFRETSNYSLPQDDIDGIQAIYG
T7 sequence (P78536 18-670): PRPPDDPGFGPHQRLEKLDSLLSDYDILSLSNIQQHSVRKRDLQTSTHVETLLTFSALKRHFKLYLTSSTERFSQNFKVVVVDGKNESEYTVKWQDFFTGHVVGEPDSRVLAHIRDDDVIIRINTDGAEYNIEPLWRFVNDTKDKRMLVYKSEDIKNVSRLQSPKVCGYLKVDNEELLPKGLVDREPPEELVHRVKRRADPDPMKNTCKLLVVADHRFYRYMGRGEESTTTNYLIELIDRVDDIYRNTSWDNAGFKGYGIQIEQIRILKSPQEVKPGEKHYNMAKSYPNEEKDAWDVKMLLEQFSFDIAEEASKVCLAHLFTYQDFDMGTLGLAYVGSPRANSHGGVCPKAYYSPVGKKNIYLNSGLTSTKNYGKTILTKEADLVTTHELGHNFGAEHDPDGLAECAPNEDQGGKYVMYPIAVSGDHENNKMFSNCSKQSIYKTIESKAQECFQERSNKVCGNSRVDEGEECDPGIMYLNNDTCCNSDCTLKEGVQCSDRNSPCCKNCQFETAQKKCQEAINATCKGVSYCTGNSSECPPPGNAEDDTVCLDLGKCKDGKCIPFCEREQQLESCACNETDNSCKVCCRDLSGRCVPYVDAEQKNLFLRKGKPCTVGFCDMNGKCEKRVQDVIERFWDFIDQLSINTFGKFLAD
T4 sequence (P14780 20-707): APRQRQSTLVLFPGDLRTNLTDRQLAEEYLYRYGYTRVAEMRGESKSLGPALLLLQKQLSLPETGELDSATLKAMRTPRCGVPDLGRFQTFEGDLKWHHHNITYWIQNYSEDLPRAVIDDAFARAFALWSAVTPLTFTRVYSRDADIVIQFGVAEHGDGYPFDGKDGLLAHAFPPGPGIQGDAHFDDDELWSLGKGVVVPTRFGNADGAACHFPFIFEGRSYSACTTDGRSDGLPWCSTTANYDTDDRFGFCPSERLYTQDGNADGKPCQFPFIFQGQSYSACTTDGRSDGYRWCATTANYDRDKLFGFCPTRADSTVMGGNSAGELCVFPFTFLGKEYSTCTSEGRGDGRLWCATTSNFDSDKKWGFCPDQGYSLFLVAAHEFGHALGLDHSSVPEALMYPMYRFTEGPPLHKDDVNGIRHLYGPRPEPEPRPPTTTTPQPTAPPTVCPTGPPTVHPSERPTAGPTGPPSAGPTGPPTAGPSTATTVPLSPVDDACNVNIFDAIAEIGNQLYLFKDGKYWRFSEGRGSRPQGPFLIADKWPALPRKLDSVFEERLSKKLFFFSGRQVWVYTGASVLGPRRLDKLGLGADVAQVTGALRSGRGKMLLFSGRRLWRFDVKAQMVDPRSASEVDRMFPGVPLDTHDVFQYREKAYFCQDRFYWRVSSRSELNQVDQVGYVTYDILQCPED

| IC50 [1] | IC50 [2] | IC50 [3] | IC50 [4] | IC50 [5] | IC50 [6] | IC50 [8] | Structure (SMILES) | clearance [7] | bioavailability [7] | half-life [7] |
| --- | --- | --- | --- | --- | --- | --- | --- | --- | --- | --- |
| > 100 µM | > 100 µM | > 100 µM | 3.2 ± 0.2 µM | ≥ 90 µM | 48 ± 8 µM | > 100 µM | COCc1ccccc1NCc1ccc([C@@H]2[C@H](O)CCCc3cncn32)c(-c2ccccc2Cl)c1 [CSN5i-2e, (5R,6R)-5-(2′-chloro-5-(((2-(methoxymethyl)phenyl)amino)methyl)-[1,1′-biphenyl]-2-yl)-6,7,8,9-tetrahydro-5H-imidazo[1,5-a]azepin-6-ol] | – | – | – |
| > 100 µM | > 100 µM | > 100 µM | 3.8 ± 0.4 µM | 89 ± 3 µM | 59 ± 8 µM | > 100 µM | COCc1ccccc1NCc1ccc([C@H]2[C@@H](O)CCCc3cncn32)c(-c2ccccc2Cl)c1 [CSN5i-2, (5S,6S)-5-(2′-chloro-5-(((2-(methoxymethyl)phenyl)amino)methyl)-[1,1′-biphenyl]-2-yl)-6,7,8,9-tetrahydro-5H-imidazo[1,5-a]azepin-6-ol] | 82 ± 25 mL/min/kg | < 1% | 0.6 ± 0.0167 h |

| Structure (SMILES) | IC50 [1] | IC50 [2] | IC50 [3] | IC50 [4] | IC50 [5] | IC50 [6] | IC50 [8] | clearance [7] | bioavailability [7] | half-life [7] |
| --- | --- | --- | --- | --- | --- | --- | --- | --- | --- | --- |
| CC(C)n1nc(C(F)F)cc1C(=O)Nc1ccc([C@H]2[C@@H](O)CCCc3cncn32)c(-c2ccccc2)c1 [CSN5i-3, 3-(Difluoromethyl)-N-(6-((5S,6S)-6-hydroxy-6,7,8,9-tetrahydro-5H-imidazo[1,5-a]azepin-5-yl)-[1,1′-biphenyl]-3-yl)-1-isopropyl-1H-pyrazole-5-carboxamide] | > 100 µM | > 100 µM | > 100 µM | 7.4 ± 2 µM | > 100 µM | 14 ± 0.1 µM | > 100 µM | 36 ± 3 mL/min/kg | 33 ± 2% | 2.5 ± 0.3 h |
